Experimental data as given in the Bradley open melting point set (2014).
Values joined by “and” are separate entries in the source; they are usually repeats but may differ in a detail not shown here. Equal values may be shown once.

melting point | SMILES
-23 °C | C=C(C)c1ccccc1 [alpha-methylstyrene]
32 °C | CC1=CCC(C(C)(C)O)CC1 (stereo not drawn) [alpha-terpineol]
12 °C | NC(c1ccccc1)c1ccccc1 [aminodiphenylmethane]
108 °C | Cc1c(N(C)C)c(=O)n(-c2ccccc2)n1C [aminopyrine]
175 °C | C=C(C)Cn1c(N)cc(=O)n(C)c1=O [amisometradine]
196 °C | CN(C)CCC=C1c2ccccc2CCc2ccccc21 [amitriptyline]
-100 °C | CCCCCOC(C)=O [amyl_acetate]
116 °C | CC12CCC=C1C1CCC3CC(=O)CCC3(C)C1CC2 (centres undefined) [androst-14-en-3-one]
-37 °C | COc1ccccc1 [anisole]
120 °C | c1ccc(CN(CC2=NCCN2)c2ccccc2)cc1 [antazoline]
113 °C | Cc1cc(=O)n(-c2ccccc2)n1C [antipyrine] [listing 1 of 2 here]
112 °C | Cc1cc(=O)n(-c2ccccc2)n1C [antipyrine] [listing 2 of 2 here]
75 °C | CCCCCCCCCCCCCCCCCCCC(=O)O [arachidic acid]
198 °C | OC[C@H]1O[C@@H](Oc2ccc(O)cc2)[C@H](O)[C@@H](O)[C@@H]1O [arbutin]
191 °C | O=C1O[C@H]([C@@H](O)CO)C(O)=C1O [ascorbic acid]
76 °C | CCCCCCCCCCCCCCCCCCCCCC(=O)O [behenic acid]
51 °C and 49 °C and 46 °C | C(=N\c1ccccc1)/c1ccccc1 [benzalaniline]
126 °C and 127 °C | NC(=O)c1ccccc1 [benzamide]
164 °C | O=C(Nc1ccccc1)c1ccccc1 [benzanilide]
160 °C | c1ccc2cc3c(ccc4ccccc43)cc2c1 [benzanthracene]

melting point | SMILES
124 °C | CCc1oc2ccccc2c1C(=O)c1ccc(O)cc1 [benzarone]
153 °C | NS(=O)(=O)c1ccccc1 [benzenesulfonamide]
66 °C | OC(c1ccccc1)c1ccccc1 [benzhydrol]
39 °C | BrC(c1ccccc1)c1ccccc1 [benzhydryl bromide]
95 °C | O=C(C(=O)c1ccccc1)c1ccccc1 [benzil]
44 °C | c1ccc2c(c1)OCCOCCOCCOCCOCCO2 [benzo-18-crown-6]
239 °C | O=C(O)c1cc2ccccc2s1 [benzo[b]thiophene-2-carboxylic acid]
128 °C | O=C(O)c1ccc2c(c1)no[n+]2[O-] [benzofuroxan-5-carboxylic acid]
122 °C (5×) and 123 °C (2×) | O=C(O)c1ccccc1 [benzoic acid]
-13 °C | N#Cc1ccccc1 [benzonitrile]
182 °C | O=C(c1ccccc1)C(c1ccccc1)(c1ccccc1)c1ccccc1 [benzopinacolone]
120 °C | O=C(CC(=O)c1ccccc1O)c1ccccc1 [benzoyl(2-hydroxybenzoyl)methane]
112 °C | CC(=O)OC1C(C)OC(OCc2ccccc2)C(OC(C)=O)C1OC(C)=O (centres undefined) [benzyl 2,3,4-tri-O-acetyl-6-deoxyhexopyranoside]
187 °C | CC(=O)N[C@H]1[C@H](OC(C)=O)O[C@H](COC(C)=O)[C@@H](OC(C)=O)[C@@H]1OC(C)=O [beta-D-glucosamine pentaacetate]
200 °C | NCCC(=O)O [beta-alanine]
-8 °C | BrC=Cc1ccccc1 [beta-bromostyrene, cis trans]
154 °C | c1ccc2c(-c3cccc4ccccc34)cccc2c1 [binaphthyl]
108 °C | COc1ccc(C(=O)c2ccc(-c3ccccc3)cc2)cc1OC [biphenyl-4-yl(3,4-dimethoxyphenyl)methanone]
115 °C | c1ccc2c(c1)-c1ccccc1-2 [biphenylene]
156 °C | CC(C)(c1ccc(O)cc1)c1ccc(O)cc1 [bisphenol a]

melting point | SMILES
88 °C | CC(C)(C)OC(=O)O/N=C(\C#N)c1ccccc1 [boc-on]
-129 °C | CB(C)Br [bromodimethylborane]
41 °C | BrC(c1ccccc1)c1ccccc1 [bromodiphenylmethane]
162 °C | Cc1c(C)c(C)c(Br)c(C)c1C [bromopentamethylbenzene]
201 °C | Cc1c(C2(c3cc(C(C)C)c(O)c(Br)c3C)OS(=O)(=O)c3ccccc32)cc(C(C)C)c(O)c1Br [bromothymol blue]
-44 °C | C[Si](C)(C)Br [bromotrimethylsilane]
114 °C | BrC(=C(c1ccccc1)c1ccccc1)c1ccccc1 [bromotriphenylethylene]
154 °C | BrC(c1ccccc1)(c1ccccc1)c1ccccc1 [bromotriphenylmethane]
160 °C | CCOc1ccc(NC(=O)CC(C)O)cc1 (centres undefined) [bucetin]
107 °C | CCCCN1CCCCC1C(=O)Nc1c(C)cccc1C (centres undefined) [bupivacaine]
58 °C | CCCCOC(=O)c1ccc(N)cc1 [butamben]
-97 °C | CCCC=O [butanal]
-5 °C | CCCC(=O)O [butanoic_acid]
68.5 °C | CCCCOC(=O)c1ccc(O)cc1 [butylparaben]
-5.7 °C | CCCC(=O)O [butyric acid]
190 °C | NC(=O)N1c2ccccc2C=Cc2ccccc21 [carbamazepine]
12 °C | B1Oc2ccccc2O1 [catecholborane]
110 °C | CCN(CC)C(=O)Nc1ccc(OCC(O)CNC(C)(C)C)c(C(C)=O)c1 (centres undefined) [celiprolol]

SMILES | melting point
N#CC(c1ccccc1)N1CCOCC1 (stereo not drawn) [alpha-(4-morpholinyl)phenylacetonitrile] | 69 °C
NC1=NCC(c2ccccc2)O1 (centres undefined) [aminorex] | 136 °C
CCC1(CCC(C)C)C(=O)NC(=O)NC1=O [amobarbital] | 156 °C
CC(Cc1ccccc1)NC(C#N)c1ccccc1 (centres undefined) [amphetaminil] | 85 °C
CCOC(=O)C1(c2ccccc2)CCN(CCc2ccc(N)cc2)CC1 [anileridine] | 83 °C
Nc1ccccc1C(=O)O [anthranilic acid] | 147 °C
NCC(CC(=O)O)c1ccc(Cl)cc1 (centres undefined) [baclofen] | 208 °C
CCN(CC)CCOC(=O)C(O)(c1ccccc1)c1ccccc1 [benactyzin] | 51 °C
ClC(Cl)c1ccccc1 [benzal chloride] | -16 °C
[O-][n+]1onc2ccccc21 [benzofuroxan] | 69 °C
O=C(Cl)c1ccccc1 [benzoyl chloride] | -1 °C
N#CCC(=O)c1ccccc1 [benzoylacetonitrile] | 81 °C
ClCc1ccccc1 [benzyl chloride] | -43 °C
ClCc1ccccc1 [benzyl_chloride] | -43 °C
CCCCC(CC)COC(=O)CCCCC(=O)OCC(CC)CCCC (centres undefined) [bis(2-ethylhexyl) adipate] | -67 °C
CCBr [bromoethane] | -119 °C
CCCCc1ccccc1 [butylbenzene] | -88 °C
CCCC=NO [butyraldoxime] | -29 °C
CCCC#N [butyronitrile] | -112 °C
ClC(Cl)(Cl)Cl [carbon tetrachloride] | -23 °C (4×) and -22.9 °C
CCCC(C)(COC(N)=O)COC(=O)NC(C)C (centres undefined) [carisoprodol] | 92 °C
